Experimental data reported in US20240254083A1, “HETEROCYCLIC TRPML1 AGONISTS AND USES THEREOF” (Libra Therapeutics, Inc., priority 2021, published 2024).

molecular target: T1, hTRPML1 (Homo sapiens, UniProt Q9GZU1); experiment: Cellular TRPML1 assay (FLIPR, GCaMP6f calcium read-out); format: cell-based; settings: HEK T-REx/GCaMP6f/TRPML1 cells, FLIPR TETRA, kinetic response over 300 seconds; read-out: hTRPML1 FLIPR pEC50 (converted)
T1 construct: expressed in transfected cells
Description: Buffers and reagents • PBS (D-PBS without calcium and magnesium; EuroClone) • Trypsin (Trypsin 0.05%, EDTA 0.02% in PBS; EuroClone) • DMSO (Sigma) • Ca^2+ free Tyrode's buffer: in-house solution (130 mM NaCl, 5 mM KCl, 1 mM MgCl2, 5 mM NaHCO3, 20 mM HEPES in water at pH 7.4; sterile filtered). • Opti-MEM (Gibco) • Agonist: ML-SA1 (Sigma); stock: 60 mM in DMSO, stored at −20° C. • Blocker: ML-SI3 (in house synthesis); stock: 20 mM in DMSO, stored at −20° C.
Cell line • The final clone for the TRPML1 assay is HEK T-REx/GCaMP6f/TRPML1. • GCaMP6f is a genetically encoded calcium indicator that is stably expressed in this cell line and used as a fluorescent read-out.
Cells are seeded at 15000 cells/well either in 25 µl/well of growth medium or in 20 μl/well of Optimem+0.5% FBS without selection antibiotics. Twenty-four hours later, cells are assayed for the response to various compounds using the Ca^2+ sensitive GCaMP6f protein stably expressed in the cells as readout.
The experiment is performed in a 384-well format according to the following procedures for either Ca^2+ free or Optimem conditions: • Ca^2+ free condition (in absence of extracellular Ca^2+): • 24 h after seeding, pre-incubate the cells at room temperature for about 10′. • Then remove the culture medium and replace it with 20 μL of Ca^2+ free Tyrode's buffer. • Start the experiment at the FLIPR^TETRA by injecting 10 μL/w of 3× concentrated test compounds and controls in Ca^2+ free Tyrode's buffer. Monitor the kinetic response over a period of 300 seconds. • Final DMSO concentration: 0.5% • Optimem condition (in presence of extracellular Ca^2+): • 24 h after seeding, pre-incubate the cells at room temperature for about 10′. • Start the experiment at the FLIPR^TETRA by injecting 10 μL/w of 3× concentrated test compounds and controls in Ca^2+ free Tyrode's buffer. Monitor the kinetic response over a period of 300 seconds. • Final DMSO concentration: 0.5%
Data from FLIPR^TETRA measurements are analyzed with the Genedata Screener© software.

T1 sequence (Q9GZU1 whole entry): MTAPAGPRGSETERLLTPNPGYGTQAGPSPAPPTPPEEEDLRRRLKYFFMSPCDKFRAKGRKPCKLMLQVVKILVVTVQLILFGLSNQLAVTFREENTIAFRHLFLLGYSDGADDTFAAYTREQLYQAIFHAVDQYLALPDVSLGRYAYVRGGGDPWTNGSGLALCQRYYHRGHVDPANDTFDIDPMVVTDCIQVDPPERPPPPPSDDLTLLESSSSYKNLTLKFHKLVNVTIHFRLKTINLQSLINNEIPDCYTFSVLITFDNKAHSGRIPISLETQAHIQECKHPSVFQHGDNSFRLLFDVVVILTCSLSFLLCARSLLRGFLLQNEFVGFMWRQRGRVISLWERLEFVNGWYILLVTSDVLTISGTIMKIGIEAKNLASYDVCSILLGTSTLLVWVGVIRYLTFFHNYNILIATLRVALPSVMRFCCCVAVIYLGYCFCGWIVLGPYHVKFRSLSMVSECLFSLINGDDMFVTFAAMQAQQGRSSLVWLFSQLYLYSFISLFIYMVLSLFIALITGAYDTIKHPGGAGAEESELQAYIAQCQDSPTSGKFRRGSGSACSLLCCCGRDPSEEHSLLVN

Structure (SMILES) | EC50 [µM]
CC(C)(C)OC(=O)N1CCN(c2ccccc2NS(=O)(=O)c2ccc(OC(F)(F)F)cc2)CC1 [Example 21, tert-butyl 4-(2-((4-(trifluoromethoxy)phenyl)sulfonamido)phenyl) piperazine-1-carboxylate] | > 3.16
CN(C)S(=O)(=O)c1ccc(S(=O)(=O)Nc2ccccc2N2CCC[C@@H](COc3ccccc3)C2)cc1 (single isomer, unassigned) [Example 36] | 1 to 3.16
CN(C)S(=O)(=O)c1ccc(S(=O)(=O)Nc2ccccc2N2CCC[C@H](Oc3ccccc3)C2)cc1 (single isomer, unassigned) [Example 29] | > 3.16
CN(C(=O)c1ccc(S(=O)(=O)N(C)C)cc1)c1cccc(F)c1N1CCC(Oc2ccccn2)CC1 [Example 9, 4-(N,N-dimethylsulfamoyl)-N-(3-fluoro-2-(4-(pyridin-2-yloxy)piperidin-1-yl)phenyl)-N-methylbenzamide] | > 3.16
CN(C)S(=O)(=O)c1ccc(S(=O)(=O)Nc2cc(Cl)ccc2N2CCC(Oc3ccccn3)CC2)cc1 [Example 13, N^1-(5-chloro-2-(4-(pyridin-2-yloxy)piperidin-1-yl)phenyl)-N^4,N^4-dimethylbenzene-1,4-disulfonamide] | 1 to 3.16
Cc1ccc(S(=O)(=O)Nc2ccccc2N2CCN(C(=O)Oc3ccccc3)CC2)cc1C [Example 39, phenyl 4-(2-((3,4-dimethylphenyl)sulfonamido)phenyl) piperazine-1-carboxylate] | > 3.16
CC(C)N(C(=O)c1ccc(S(=O)(=O)N(C)C)cc1)c1cccc(F)c1N1CCC(Oc2ccccn2)CC1 [Example 11, 4-(N,N-dimethylsulfamoyl)-N-(3-fluoro-2-(4-(pyridin-2-yloxy)piperidin-1-yl)phenyl)-N-isopropylbenzamide] | > 3.16
CN(C)S(=O)(=O)c1ccc(S(=O)(=O)Nc2ccccc2N2CCCCCCC2)cc1 [Example 24, N1-(2-(azocan-1-yl)phenyl)-N4,N4-dimethylbenzene-1,4-disulfonamide] | 1 to 3.16
COCCN(C(=O)c1ccc(S(=O)(=O)N(C)C)cc1)c1ccccc1N1CCC(Oc2ccccc2)CC1 [Example 3, 4-(N,N-dimethylsulfamoyl)-N-(2-methoxyethyl)-N-(2-(4-phenoxypiperidin-1-yl)phenyl)benzamide] | > 3.16
Cc1ccc(N2CCC(Oc3ccccn3)CC2)c(NS(=O)(=O)c2ccc(S(=O)(=O)N(C)C)cc2)c1 [Example 14, N^1,N^1-dimethyl-N^4-(5-methyl-2-(4-(pyridin-2-yloxy)piperidin-1-yl)phenyl)benzene-1,4-disulfonamide] | < 1
CCCN(C(=O)c1ccc(S(=O)(=O)N(C)C)cc1)c1ccccc1N1CCC(Oc2ccccc2)CC1 [Example 4, 4-(N,N-dimethylsulfamoyl)-N-(2-(4-phenoxypiperidin-1-yl)phenyl)-N-propylbenzamide] | 1 to 3.16
CN(C)S(=O)(=O)c1ccc(S(=O)(=O)Nc2cccc(F)c2N2CCC(Oc3ccc(Cl)cn3)CC2)cc1 [Example 44, N^1-(2-(4-((5-chloropyridin-2-yl)oxy)piperidin-1-yl)-3-fluorophenyl)-N^4,N^4-dimethylbenzene-1,4-disulfonamide] | < 1
CN(C)S(=O)(=O)c1ccc(S(=O)(=O)Nc2cccc(F)c2N2CCC(Oc3ncc(Cl)cc3F)CC2)cc1 [Example 45, N^1-(2-(4-((5-chloro-3-fluoropyridin-2-yl)oxy)piperidin-1-yl)-3-fluorophenyl)-N^4,N^4-dimethylbenzene-1,4-disulfonamide] | < 1
CN(C)S(=O)(=O)c1ccc(S(=O)(=O)Nc2ccccc2N2CCC[C@@H](OCc3ccccc3)C2)cc1 (single isomer, unassigned) [Example 27] | 1 to 3.16
CN(C)S(=O)(=O)c1ccc(S(=O)(=O)Nc2cccc(F)c2N2CCC(Oc3ccc(C(F)(F)F)cn3)CC2)cc1 [Example 43, N^1-(3-fluoro-2-(4-((5-(trifluoromethyl)pyridin-2-yl)oxy)piperidin-1-yl)phenyl)-N^4,N^4-dimethylbenzene-1,4-disulfonamide] | < 1
Cc1ccc(S(=O)(=O)Nc2ccccc2N2CCN(C(=O)OC(C)(C)C)CC2)c(F)c1 [Example 18, tert-butyl 4-(2-((2-fluoro-4-methylphenyl)sulfonamido)phenyl)piperazine-1-carboxylate] | > 3.16
CN(C)S(=O)(=O)c1ccc(S(=O)(=O)Nc2cccc(F)c2N2CCC(C)(c3ccccc3)CC2)cc1 [Example 37, N^1-(3-fluoro-2-(4-methyl-4-phenylpiperidin-1-yl)phenyl)-N^4,N^4-dimethylbenzene-1,4 disulfonamide] | < 1
Cc1ccc(S(=O)(=O)Nc2ccccc2N2CCN(C(=O)CC(C)(C)C)CC2)cc1C [Example 41, N-(2-(4-(3,3-dimethylbutanoyl)piperazin-1-yl)phenyl)-3,4-dimethylbenzenesulfonamide] | > 3.16
CN(C)S(=O)(=O)c1ccc(S(=O)(=O)Nc2ccccc2N2CCC[C@@H](Oc3ccccc3)C2)cc1 (single isomer, unassigned) [Example 30] | 1 to 3.16
Cc1ccc(N2CCC(Oc3ccccn3)CC2)c(N(C(=O)c2ccc(S(=O)(=O)N(C)C)cc2)C2CCCC2)c1 [Example 16, N-cyclopentyl-4-(N,N-dimethylsulfamoyl)-N-(5-methyl-2-(4-(pyridin-2-yloxy)piperidin-1-yl)phenyl)benzamide] | 1 to 3.16
CC(C)(C)CC(=O)N1CCN(c2ccccc2NS(=O)(=O)c2ccc(C(F)(F)F)cc2)CC1 [Example 42, N-(2-(4-(3,3-dimethylbutanoyl)piperazin-1-yl)phenyl)-4-(trifluoromethyl)benzenesulfonamide] | > 3.16
CCS(=O)(=O)c1ccc(S(=O)(=O)Nc2cccc(F)c2N2CCC(Oc3ccccn3)CC2)cc1 [Example 15, 4-(ethylsulfonyl)-N-(3-fluoro-2-(4-(pyridin-2-yloxy)piperidin-1-yl)phenyl)benzenesulfonamide] | 1 to 3.16
CN(C)S(=O)(=O)c1ccc(S(=O)(=O)Nc2ccccc2N2CCC[C@H](COc3ccccc3)C2)cc1 (single isomer, unassigned) [Example 35] | 1 to 3.16
CN(C)S(=O)(=O)c1ccc(C(=O)N(c2cccc(F)c2N2CCC(Oc3ccccn3)CC2)C2CCC2)cc1 [Example 12, N-cyclobutyl-4-(N,N-dimethylsulfamoyl)-N-(3-fluoro-2-(4-(pyridin-2-yloxy)piperidin-1-yl)phenyl)benzamide] | > 3.16
Cc1ccc(C)c(S(=O)(=O)Nc2ccccc2N2CCN(C(=O)OC(C)(C)C)CC2)c1 [Example 20, tert-butyl 4-(2-((2,5-dimethylphenyl)sulfonamido)phenyl)piperazine-1-carboxylate] | > 3.16
CN(C)S(=O)(=O)c1ccc(S(=O)(=O)Nc2ccccc2N2CCC[C@H](OCc3ccccc3)C2)cc1 (single isomer, unassigned) [Example 26] | 1 to 3.16
CN(C)S(=O)(=O)c1ccc(S(=O)(=O)Nc2cccc(Cl)c2N2CCC(Oc3ccccn3)CC2)cc1 [Example 7, N^1-(3-chloro-2-(4-(pyridin-2-yloxy)piperidin-1-yl)phenyl)-N^4,N^4-dimethylbenzene-1,4-disulfonamide] | 1 to 3.16
CN(C)S(=O)(=O)c1ccc(C(=O)N(c2ccccc2N2CCC(Oc3ccccc3)CC2)C2CC2)cc1 [Example 5, N-cyclopropyl-4-(N,N-dimethylsulfamoyl)-N-(2-(4-phenoxypiperidin-1-yl)phenyl)benzamide] | > 3.16
